Where two headings read alike, the source gives them in different places.
Legend:
[1] = system: isolated rat liver mitochondria; experiment: Mitochondrial oxygen consumption (glutamate/malate or succinate driven, state 4 and state 3); format: biochemical; for State 3 respiration driven by succinate at 10XCmax: key: 0 indicates that the drug had no effects (negative); for State 3 respiration driven by succinate at 1XCmax: key: 0 indicates that the drug had no effects (negative)
Outline: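 Rat liver mitochondria (1 mg/ml protein) exposed 5 min to kinase inhibitors in 0.1% DMSO, then O2 consumption measured by Clark-type electrode with glutamate/malate or succinate (state 4), ADP added after 3 min (state 3). Rates normalized to 0.1% DMSO controls set to 1.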

RCC I = RCC I activity in submitochondrial particles; format: biochemical, rat; parameters: key to RCC I at 10XCmax / RCC I at 100XCmax / RCC I at 50XCmax / RCC I at 30XCmax / RCC I at 20XCmax: activity relative to DMSO-treated controls (control set as 1 = 100%)
Outline: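 Abs 340 nm (I/V) or 600 nm (II), 1-min reads × 6 min; 550 nm (III, IV), 10-s reads × 2 min. RCC I = rotenone-free minus rotenone rate. DMSO control = 1.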

RCC III = RCC III activity in submitochondrial particles; format: biochemical, rat; parameters: key to RCC III at 100XCmax: activity relative to DMSO-treated controls (control set as 1 = 100%)
Protocol: (§1) KIs were incubated with submitochondrial particles (1 mg/ml) for 15 min and then RCC I–V activities measured. […] The activities of DMSO-treated samples (controls) were set as 1. […] The difference between the activity from rotenone-containing buffer and rotenone-absent buffer was considered as RCC I activity. […] For measuring RCC I/V and II activity, the changes in absorbance at 340 and 600 nm, respectively, were determined every 1 min for 6 min. For measuring RCC III and RCC IV, the changes in absorbance at 550 nm were measured every 10 s for 2 min.

RCC IV = RCC IV activity in submitochondrial particles; format: biochemical, rat; parameters: key to RCC IV at 50XCmax / RCC IV at 100XCmax: activity relative to DMSO-treated controls (control set as 1 = 100%)
Protocol: as §1

RCC I–V = experiment: Activities of RCC I–V, overall statements; format: biochemical, rat; conditions: submitochondrial particles
Protocol: as §1

[2] = cited from earlier work
RCC II = molecular target: T1, RCC II (Rattus norvegicus, UniProt P21913+Q641Z9+Q6PCT8+Q920L2); experiment: RCC II activity in submitochondrial particles; format: biochemical; parameters: key: activity relative to DMSO-treated controls (control set as 1 = 100%); conditions: DMSO treated samples set as 1
T1 construct: Submitochondrial particles were prepared by subjecting the intact mitochondria to three successive freeze–thaw cycles; from tissue; host or cells: rat liver mitochondria, used as submitochondrial particles
T1 sequence (Q920L2 35-656): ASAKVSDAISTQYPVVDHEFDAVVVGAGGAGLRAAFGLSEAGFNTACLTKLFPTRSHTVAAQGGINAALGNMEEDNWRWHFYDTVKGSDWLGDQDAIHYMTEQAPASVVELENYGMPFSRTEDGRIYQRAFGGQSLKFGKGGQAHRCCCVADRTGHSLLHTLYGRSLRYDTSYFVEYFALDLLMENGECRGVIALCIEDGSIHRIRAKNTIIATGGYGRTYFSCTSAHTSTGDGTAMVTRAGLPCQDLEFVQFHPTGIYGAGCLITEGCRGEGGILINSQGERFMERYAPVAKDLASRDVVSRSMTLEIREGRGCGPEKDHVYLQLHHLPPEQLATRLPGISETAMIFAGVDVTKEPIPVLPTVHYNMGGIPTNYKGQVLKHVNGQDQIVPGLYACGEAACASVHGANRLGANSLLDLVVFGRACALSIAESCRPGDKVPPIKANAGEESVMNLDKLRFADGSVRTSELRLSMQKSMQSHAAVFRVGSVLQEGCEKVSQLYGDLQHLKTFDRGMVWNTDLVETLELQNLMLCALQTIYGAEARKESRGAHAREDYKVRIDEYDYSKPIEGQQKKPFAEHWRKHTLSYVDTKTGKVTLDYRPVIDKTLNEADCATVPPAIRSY
T1 sequence (P21913 31-282): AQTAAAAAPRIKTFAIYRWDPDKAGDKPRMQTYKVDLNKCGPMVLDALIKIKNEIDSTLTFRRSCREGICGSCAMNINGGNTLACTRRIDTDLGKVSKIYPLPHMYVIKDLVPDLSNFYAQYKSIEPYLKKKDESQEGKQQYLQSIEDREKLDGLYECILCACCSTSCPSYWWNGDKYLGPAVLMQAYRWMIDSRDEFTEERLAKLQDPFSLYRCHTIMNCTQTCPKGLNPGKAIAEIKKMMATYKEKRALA
T1 sequence (Q641Z9 1-169): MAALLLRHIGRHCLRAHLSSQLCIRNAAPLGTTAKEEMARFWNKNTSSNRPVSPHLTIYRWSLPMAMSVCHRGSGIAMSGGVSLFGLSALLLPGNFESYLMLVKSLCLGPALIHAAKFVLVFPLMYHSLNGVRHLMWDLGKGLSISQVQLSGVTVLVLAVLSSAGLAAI
T1 sequence (Q6PCT8 57-159): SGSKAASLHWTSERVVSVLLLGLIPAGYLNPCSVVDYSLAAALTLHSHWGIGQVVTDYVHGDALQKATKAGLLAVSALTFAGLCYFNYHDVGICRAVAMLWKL
Outline: (§2)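 Kinase inhibitors were preincubated 15 min with submitochondrial particles (1 mg/ml) before complex activities were measured. RCC I was the rotenone-sensitive portion (activity without minus with rotenone). RCC I/V was read at 340 nm and RCC II at 600 nm every 1 min for 6 min. RCC III and IV were read at 550 nm every 10 s for 2 min. Activities are normalized to DMSO controls set as 1.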

RCC V = RCC V activity in submitochondrial particles; format: biochemical, rat; conditions: DMSO treated samples set as 1; for RCC V at 5XCmax: key: 0 indicates that the drug had no effects (negative)
Outline: as §2

[3] = system: isolated rat liver mitochondria; experiment: Mitochondrial inner membrane potential (MMP), Rhodamine 123; format: biochemical; conditions: difference in signal between KI and DMSO treated samples at the end of experiments
Source text: Fig. 3 KI effects on mitochondrial inner membrane potential (MMP). […] In a, c, data are means and standard derivations from three separate experiments. *p < 0.05 as compared to DMSO-treated samples at the end of experiments. In b, data are means of two independent experiments

[4] = system: isolated rat liver mitochondria; experiment: Mitochondrial swelling (absorbance at 535 nm); format: biochemical; conditions: difference in signal between KI and DMSO treated samples at the end of experiments; for Swelling 5XCmax: key: 0 indicates that the drug had no effects (negative)
[5] = system: isolated rat liver mitochondria; experiment: Mitochondrial toxicity, any endpoint, intact mitochondria and submitochondrial particles; format: biochemical; conditions: highest concentrations tested
Protocol: Rats were anesthetized by an intraperitoneal injection of Nembutal and the liver perfused with PBS to remove the blood. The liver was then cut into small pieces and homogenized using a Dounce type homogenizer in the ice-cold isolation buffer (IB) containing 200 mM sucrose, 10 mM Tris-MOPS, 1 mM EGTA (pH 7.4). The sample was then centrifuged at 600g for 10 min. The supernatant was further centrifuged at 7500g for 10 min, and the pellets was washed once with the IB and centrifuged again at 7500g for 10 min to collect mitochondria. […] Before drug treatment, the protein concentration was adjusted to 1 mg/ml using appropriate buffer. […] Briefly, mitochondrial and cytosolic fractions from four different preparations using four rats were diluted using the Laemmli protein loading buffer and subject to SDS-PAGE with 4–20% gradient gels. The proteins were blotted to PVDF membranes and detected using antibodies against GAPDH, ATP5A, UQCRC2, SDHB, and NDUFB8.
The aliquoted stock solutions were kept for less than one month and each tube was used only once. The KIs were added to the mitochondria at 1:1000 dilutions. […] The Cmax data were from clinical trials which used FDA recommend dosages, route of administration, and duration. […] The final concentration of DMSO for drug treatment was always 0.1%, and control treatments were 0.1% DMSO.

[6] = system: isolated rat liver mitochondria; conditions: positive control alamethicin treated samples
[7] = in vivo; cited from earlier work
[8] = ref product labeling, cited from earlier work
[9] = system: isolated rat liver mitochondria; experiment: Mitochondrial ROS production (CM-H2DCFDA); conditions: DMSO treated samples set as 1
[10] = 1-fold Cmax, 15 min, DMSO-treated = 100
[11] = 1XCmax, DMSO treated samples set as 1
[12] = 2.5XCmax, DMSO treated samples set as 1
[13] = 5XCmax, DMSO treated samples set as 1
[14] = 10XCmax, DMSO treated samples set as 1
[15] = 20XCmax, DMSO treated samples set as 1
[16] = 30XCmax, DMSO treated samples set as 1
[17] = 50XCmax, DMSO treated samples set as 1
[18] = 100XCmax, DMSO treated samples set as 1

SMILES: Cc1ccc(Nc2nccc(N(C)c3ccc4c(C)n(C)nc4c3)n2)cc1S(N)(=O)=O [Pazopanib]
- inhibition of state 3 mitochondrial respiration driven by glutamate/malate ([1]; onefold Cmax): over 50%
- RCC activity I (RCC I; [10]): 83.77 ± 2.98 % of control
- RCC activity III (RCC III; [10]): 96.90 ± 11.69 % of control
- RCC activity IV (RCC IV; [10]): 102.68 ± 0.57 % of control
- lowest concentration inhibiting RCCs (RCC I–V): equal to Cmax
- RCCs inhibited (RCC I–V; up to 100-fold Cmax or highest testable concentration): inhibitor of RCC I but not other RCCs
- Cmax ([2]; human therapeutic Cmax at FDA recommended dosages, ref product labeling and drug approval packages at the official FDA website): 133 µM
- Cmax ([2]; human therapeutic Cmax at FDA recommended dosages, ref product labeling and drug approval packages at the official FDA website, listed as pazopanib): 133 µM

SMILES: Cc1ccc(C(=O)Nc2ccc(CN3CCN(C)CC3)c(C(F)(F)F)c2)cc1C#Cc1cnc2cccnn12 [Ponatinib]
- State 3 respiration driven by succinate at 1XCmax [1, 11]: 0
- State 4 respiration driven by succinate at 1XCmax [1, 11]: 0
- State 3 respiration driven by succinate at 2.5XCmax [1, 12]: 0
- State 4 respiration driven by succinate at 2.5XCmax [1, 12]: 0
- State 3 respiration driven by succinate at 5XCmax [1, 13]: 0
- State 4 respiration driven by succinate at 5XCmax [1, 13]: 0
- State 3 respiration driven by succinate at 10XCmax [1, 14]: 0
- State 4 respiration driven by succinate at 10XCmax [1, 14]: 0
- State 3 respiration driven by succinate at 20XCmax [1, 15]: 0
- State 4 respiration driven by succinate at 20XCmax [1, 15]: 0
- State 3 respiration driven by succinate at 30XCmax [1, 16]: 0
- State 4 respiration driven by succinate at 30XCmax [1, 16]: 0
- State 3 respiration driven by succinate at 50XCmax [1, 17]: 0
- State 4 respiration driven by succinate at 50XCmax [1, 17]: 0
- State 3 respiration driven by succinate at 100XCmax [1, 18]: 0
- State 4 respiration driven by succinate at 100XCmax [1, 18]: 0
- RCC I at 10XCmax (RCC I; [14]): 0
- RCC II at 1.0XCmax (RCC II; 1.0XCmax): 0
- RCC II at 2.5XCmax (RCC II; 2.5XCmax): 0
- RCC II at 5XCmax (RCC II; 5XCmax): 0
- RCC II at 10XCmax (RCC II; 10XCmax): 0
- RCC II at 20XCmax (RCC II; 20XCmax): 0
- RCC II at 30XCmax (RCC II; 30XCmax): 0
- RCC II at 50XCmax (RCC II; 50XCmax): 0
- RCC II at 100XCmax (RCC II; 100XCmax): 0
- RCC III at 100XCmax (RCC III; 100XCmax): 0
- RCC IV at 50XCmax (RCC IV; 50XCmax, DMSO treated samples set as 1, in %): 0
- RCC V at 5XCmax (RCC V; 5XCmax): 0
- RCC V at 50XCmax (RCC V; 50XCmax): 0
- MMP measured by Rhodamine 123 at 1XCmax ([3]; 1XCmax): 0
- MMP measured by Rhodamine 123 at 2.5XCmax ([3]; 2.5XCmax): 0
- MMP measured by Rhodamine 123 at 5XCmax ([3]; 5XCmax): 0
- MMP measured by Rhodamine 123 at 10XCmax ([3]; 10XCmax): 0
- MMP measured by Rhodamine 123 at 20XCmax ([3]; 20XCmax): 0
- MMP measured by Rhodamine 123 at 30XCmax ([3]; 30XCmax): 0
- MMP measured by Rhodamine 123 at 50XCmax ([3]; 50XCmax): 0
- MMP measured by Rhodamine 123 at 100XCmax ([3]; 100XCmax): 0
- Swelling 1XCmax ([4]; 1XCmax): 0
- Swelling 2.5XCmax ([4]; 2.5XCmax): 0
- Swelling 5XCmax ([4]; 5XCmax): 0
- Swelling 10XCmax ([4]; 10XCmax): 0
- Swelling 20XCmax ([4]; 20XCmax): 0
- Swelling 30XCmax ([4]; 30XCmax): 0
- Swelling 50XCmax ([4]; 50XCmax): 0
- Swelling 100XCmax ([4]; 100XCmax): 0
- effects on intact mitochondria or submitochondrial particles [5]: no effects
- Cytochrome c release 1XCmax ([6]; 1XCmax): 0
- Cytochrome c release 2.5XCmax ([6]; 2.5XCmax): 0
- Cytochrome c release 5XCmax ([6]; 5XCmax): 0
- Cytochrome c release 10XCmax ([6]; 10XCmax): 0
- Cytochrome c release 20XCmax ([6]; 20XCmax): 0
- Cytochrome c release 30XCmax ([6]; 30XCmax): 0
- Cytochrome c release 50XCmax ([6]; 50XCmax): 0
- Cytochrome c release 100XCmax ([6]; 100XCmax): 0
- Cmax (ng or µg/ml) ([2]; human therapeutic maximal blood concentration, ref product labeling): 0.073 µg/mL
- Cmax ([2]; read-out: Cmax at µM, human therapeutic maximal blood concentration, ref product labeling): 0.14 µM
- DILI potential (based on labeling) [7]: 1
- Labeling for DILI [7]: BBW: fatal DILI
- labeling for DILI [7]: BBW: fatal DILI
- Labeling for cardiotoxicity ([8]; BBW: black box warning, W&P: Warnings and Precautions): BBW: Heart Failure
- Potential for cardiotoxicity (based on labeling) [8]: 1
- ROS measured by CM-H2DCFDA at 1XCmax ([9]; 1XCmax): 0
- ROS measured by CM-H2DCFDA at 2.5XCmax ([9]; 2.5XCmax): 0
- ROS measured by CM-H2DCFDA at 5XCmax ([9]; 5XCmax): 0
- ROS measured by CM-H2DCFDA at 10XCmax ([9]; 10XCmax): 0
- ROS measured by CM-H2DCFDA at 20XCmax ([9]; 20XCmax): 0
- ROS measured by CM-H2DCFDA at 30XCmax ([9]; 30XCmax): 0
- ROS measured by CM-H2DCFDA at 50XCmax ([9]; 50XCmax): 0
- ROS measured by CM-H2DCFDA at 100XCmax ([9]; 100XCmax): 0
